Data published in US7897568B2, “Compositions for treatment of cancer” (priority 2006, dated 2011).
Where a SMILES comes first, the peptide text is derived from it.

Target: SNCG (Homo sapiens, UniProt O76070)
Experiment: ANS fluorescence of the SNCG-ANK peptide complex
Assay type: binding
Design: The SNCG coding region was amplified from the human cDNA clone; GST (N, cleaved yes); made in house; host or cells: Escherichia coli BL21 (DE3)
Details: SNCG 30 μM, ANK peptide 240 μM, 0.02 mg/mL ANS; versus peptide only
Source text: ANS fluorescence was also utilized to study the conformational properties of SNCG and the SNCG-ANK peptide interaction (See FIG. 2C). Changes in ANS fluorescence intensity are frequently used to monitor formation of partially folded intermediates during protein unfolding and refolding (Semisotnov et al. Biopolymers 1991 31:119-128), as well as to analyze the hydrophobic surfaces of proteins (Stryer, L. J. Mol. Biol. 1965 13:482-495). The interaction of ANS with solvent-exposed hydrophobic clusters is accompanied by a considerable increase in the dye fluorescence intensity and a pronounced blue shift of the fluorescence maximum. […] The addition of ANK peptide induced significant changes in ANS fluorescence properties, including a dramatic increase in the fluorescence intensity and a blue shift in λmax. […] Importantly, formation of the SNCG-ANK complex is accompanied by an approximate 20% decrease in ANS fluorescence intensity of only peptide which is affected by the presence of SNCG, confirming the interaction between SNCG and ANK peptide.

Chain of SNCG (O76070 whole entry): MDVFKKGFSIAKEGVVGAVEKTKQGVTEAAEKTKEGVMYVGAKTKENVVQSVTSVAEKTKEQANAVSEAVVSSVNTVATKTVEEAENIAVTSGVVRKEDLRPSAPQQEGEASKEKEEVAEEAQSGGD

## CC[C@H](C)[C@H](NC(=O)[C@H](CS)NC(=O)CNC(=O)[C@H](CC(C)C)NC(=O)[C@H](Cc1c[nH]cn1)NC(=O)CNC(=O)[C@H](Cc1c[nH]cn1)NC(=O)[C@H](CCC(N)=O)NC(=O)[C@H](CO)NC(=O)[C@H](C)NC(=O)[C@@H](NC(=O)[C@H](Cc1c[nH]cn1)NC(=O)[C@H](CC(C)C)NC(=O)[C@H](C)NC(=O)[C@H](CO)NC(=O)[C@H](CC(N)=O)NC(=O)CNC(=O)[C@H](CCCCN)NC(C)=O)C(C)C)C(=O)N[C@@H](CCC(N)=O)C(=O)N[C@H](C(=O)N[C@@H](CC(C)C)C(=O)N[C@H](C(=O)N[C@@H](CCCNC(=N)N)C(=O)N[C@@H](Cc1ccc(O)cc1)C(=O)NCC(=O)N[C@@H](C)C(=O)N[C@@H](CC(N)=O)C(=O)N[C@H](C(=O)N[C@H](C(=O)N[C@@H](CCSC)C(=O)N[C@@H](CCC(N)=O)C(=O)N[C@@H](CC(N)=O)C(=O)N[C@@H](Cc1c[nH]cn1)C(=O)NCC(N)=O)[C@@H](C)O)C(C)C)C(C)C)[C@@H](C)O [ANK peptide] (Ac-KGNSALHVASQHGHLGCIQTLVRYGANVTMQNHG-NH2)
  decrease in ANS fluorescence intensity on formation of the SNCG-ANK complex: ~20%
